Legend:
[1] = molecular target: Tyrosine-protein kinase Blk (Homo sapiens) (UniProt P51451)
[2] = molecular target: Serine/threonine-protein kinase 10 (Homo sapiens) (UniProt O94804)
[3] = system: Tyrosine-protein kinase ABL1 (Homo sapiens), P00519 [T315I]
[4] = molecular target: Angiopoietin-1 receptor (Homo sapiens) (UniProt Q02763)
[5] = molecular target: Serine/threonine-protein kinase SBK1 (Homo sapiens) (UniProt Q52WX2)
[6] = molecular target: Casein kinase I isoform epsilon (Homo sapiens) (UniProt P49674)
Sequence of Casein kinase I isoform epsilon (Homo sapiens) (P49674 whole entry, looked up, canonical isoform): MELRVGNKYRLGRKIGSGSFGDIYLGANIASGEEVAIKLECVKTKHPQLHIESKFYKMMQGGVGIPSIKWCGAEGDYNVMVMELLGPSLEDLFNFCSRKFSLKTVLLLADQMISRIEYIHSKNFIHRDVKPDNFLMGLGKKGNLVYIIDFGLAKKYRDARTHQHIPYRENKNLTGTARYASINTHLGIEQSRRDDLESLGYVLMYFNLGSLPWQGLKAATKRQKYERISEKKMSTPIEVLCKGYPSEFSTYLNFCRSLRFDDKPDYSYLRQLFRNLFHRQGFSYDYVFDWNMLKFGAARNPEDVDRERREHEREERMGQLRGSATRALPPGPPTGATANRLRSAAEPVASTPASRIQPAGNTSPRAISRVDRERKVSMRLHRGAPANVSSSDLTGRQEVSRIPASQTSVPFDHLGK

[7] = molecular target: T1, Alpha-2C adrenergic receptor (Homo sapiens) (UniProt P18825); settings: Compound concentration 10.0 uM
T1 sequence (whole entry): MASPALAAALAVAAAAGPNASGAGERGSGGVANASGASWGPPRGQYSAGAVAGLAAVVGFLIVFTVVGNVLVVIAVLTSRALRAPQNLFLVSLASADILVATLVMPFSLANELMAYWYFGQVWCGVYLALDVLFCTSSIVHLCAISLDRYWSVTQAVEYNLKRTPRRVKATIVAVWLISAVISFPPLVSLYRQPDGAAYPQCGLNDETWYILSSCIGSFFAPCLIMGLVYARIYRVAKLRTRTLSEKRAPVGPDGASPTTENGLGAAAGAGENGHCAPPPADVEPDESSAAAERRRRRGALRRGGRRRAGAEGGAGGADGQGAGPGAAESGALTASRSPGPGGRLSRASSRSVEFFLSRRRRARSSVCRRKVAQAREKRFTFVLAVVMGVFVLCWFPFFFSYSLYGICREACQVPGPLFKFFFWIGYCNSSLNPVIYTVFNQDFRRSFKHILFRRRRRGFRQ

[8] = molecular target: Delta-type opioid receptor (Homo sapiens) (UniProt P41143); settings: Compound concentration 10.0 uM
Sequence of Delta-type opioid receptor (Homo sapiens) (P41143 whole entry): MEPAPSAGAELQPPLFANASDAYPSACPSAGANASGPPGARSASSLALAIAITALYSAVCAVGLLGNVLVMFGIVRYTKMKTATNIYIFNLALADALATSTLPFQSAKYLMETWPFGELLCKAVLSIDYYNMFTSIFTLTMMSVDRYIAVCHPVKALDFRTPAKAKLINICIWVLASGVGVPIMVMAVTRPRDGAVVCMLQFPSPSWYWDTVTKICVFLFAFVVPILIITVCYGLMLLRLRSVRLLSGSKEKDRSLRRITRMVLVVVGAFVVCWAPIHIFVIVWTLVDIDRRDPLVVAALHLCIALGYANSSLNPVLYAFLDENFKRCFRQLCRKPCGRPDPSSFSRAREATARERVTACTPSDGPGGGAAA

[9] = molecular target: T2, Ephrin type-B receptor 2 (Homo sapiens) (UniProt P29323)
T2 sequence (whole entry): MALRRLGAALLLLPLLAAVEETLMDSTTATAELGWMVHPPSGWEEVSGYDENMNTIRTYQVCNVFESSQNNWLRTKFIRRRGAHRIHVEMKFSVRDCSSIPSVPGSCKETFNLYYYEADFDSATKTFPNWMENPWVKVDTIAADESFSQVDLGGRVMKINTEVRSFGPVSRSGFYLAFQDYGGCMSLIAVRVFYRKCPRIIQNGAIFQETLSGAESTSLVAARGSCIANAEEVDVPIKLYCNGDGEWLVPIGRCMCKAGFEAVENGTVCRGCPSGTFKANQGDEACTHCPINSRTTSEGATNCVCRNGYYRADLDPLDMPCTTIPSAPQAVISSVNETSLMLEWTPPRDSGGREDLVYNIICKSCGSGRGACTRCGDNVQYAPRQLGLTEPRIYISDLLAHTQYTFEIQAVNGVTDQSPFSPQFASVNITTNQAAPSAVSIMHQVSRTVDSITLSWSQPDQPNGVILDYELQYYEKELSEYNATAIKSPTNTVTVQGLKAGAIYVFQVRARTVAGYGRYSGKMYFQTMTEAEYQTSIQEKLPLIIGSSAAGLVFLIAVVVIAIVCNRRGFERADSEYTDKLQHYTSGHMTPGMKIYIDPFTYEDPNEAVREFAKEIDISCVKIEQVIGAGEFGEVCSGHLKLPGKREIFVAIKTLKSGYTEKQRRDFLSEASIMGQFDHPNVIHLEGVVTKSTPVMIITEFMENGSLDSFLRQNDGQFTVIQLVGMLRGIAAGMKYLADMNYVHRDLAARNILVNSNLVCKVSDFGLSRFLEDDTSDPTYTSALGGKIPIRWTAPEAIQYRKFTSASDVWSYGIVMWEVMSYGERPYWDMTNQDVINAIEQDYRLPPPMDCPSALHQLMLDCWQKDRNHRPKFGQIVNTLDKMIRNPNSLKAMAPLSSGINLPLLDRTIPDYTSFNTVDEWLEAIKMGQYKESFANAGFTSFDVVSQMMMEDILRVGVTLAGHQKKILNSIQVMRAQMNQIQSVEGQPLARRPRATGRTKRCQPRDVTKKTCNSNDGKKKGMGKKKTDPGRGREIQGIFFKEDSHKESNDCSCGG

[10] = molecular target: T3, NUAK family SNF1-like kinase 1 (Homo sapiens) (UniProt O60285)
T3 sequence (whole entry): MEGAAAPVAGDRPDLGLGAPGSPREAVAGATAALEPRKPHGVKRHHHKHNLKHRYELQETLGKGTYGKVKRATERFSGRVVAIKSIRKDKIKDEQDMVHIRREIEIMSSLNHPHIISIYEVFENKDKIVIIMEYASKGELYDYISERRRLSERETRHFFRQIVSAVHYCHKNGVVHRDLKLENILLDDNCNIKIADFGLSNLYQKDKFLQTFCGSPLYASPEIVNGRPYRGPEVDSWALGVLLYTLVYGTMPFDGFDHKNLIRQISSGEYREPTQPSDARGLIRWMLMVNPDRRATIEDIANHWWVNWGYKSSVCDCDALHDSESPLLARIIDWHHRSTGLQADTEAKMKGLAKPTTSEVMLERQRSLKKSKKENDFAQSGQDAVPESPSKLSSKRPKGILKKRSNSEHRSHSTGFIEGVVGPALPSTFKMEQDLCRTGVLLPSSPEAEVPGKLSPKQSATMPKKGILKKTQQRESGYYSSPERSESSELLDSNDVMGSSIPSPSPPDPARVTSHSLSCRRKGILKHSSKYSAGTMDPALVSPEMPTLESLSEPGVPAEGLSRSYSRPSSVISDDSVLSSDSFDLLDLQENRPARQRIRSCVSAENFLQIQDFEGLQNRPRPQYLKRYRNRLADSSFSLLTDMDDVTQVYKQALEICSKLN

[11] = Compound concentration 100.0 nM
[12] = Compound concentration 1000.0 nM

Sequence of Serine/threonine-protein kinase SBK1 (Homo sapiens) (Q52WX2 whole entry, canonical isoform): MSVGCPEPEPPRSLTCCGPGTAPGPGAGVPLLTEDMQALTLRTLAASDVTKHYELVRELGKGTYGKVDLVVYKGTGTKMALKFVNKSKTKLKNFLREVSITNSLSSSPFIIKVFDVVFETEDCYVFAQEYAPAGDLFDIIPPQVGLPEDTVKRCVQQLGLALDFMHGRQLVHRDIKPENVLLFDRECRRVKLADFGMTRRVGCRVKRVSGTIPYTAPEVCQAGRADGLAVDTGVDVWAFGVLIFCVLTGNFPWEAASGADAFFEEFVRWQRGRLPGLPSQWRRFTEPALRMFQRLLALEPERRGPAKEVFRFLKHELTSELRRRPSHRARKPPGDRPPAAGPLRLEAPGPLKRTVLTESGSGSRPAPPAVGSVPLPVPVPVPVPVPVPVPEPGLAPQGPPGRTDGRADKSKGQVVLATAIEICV
Sequence of Serine/threonine-protein kinase 10 (Homo sapiens) (O94804 whole entry, looked up): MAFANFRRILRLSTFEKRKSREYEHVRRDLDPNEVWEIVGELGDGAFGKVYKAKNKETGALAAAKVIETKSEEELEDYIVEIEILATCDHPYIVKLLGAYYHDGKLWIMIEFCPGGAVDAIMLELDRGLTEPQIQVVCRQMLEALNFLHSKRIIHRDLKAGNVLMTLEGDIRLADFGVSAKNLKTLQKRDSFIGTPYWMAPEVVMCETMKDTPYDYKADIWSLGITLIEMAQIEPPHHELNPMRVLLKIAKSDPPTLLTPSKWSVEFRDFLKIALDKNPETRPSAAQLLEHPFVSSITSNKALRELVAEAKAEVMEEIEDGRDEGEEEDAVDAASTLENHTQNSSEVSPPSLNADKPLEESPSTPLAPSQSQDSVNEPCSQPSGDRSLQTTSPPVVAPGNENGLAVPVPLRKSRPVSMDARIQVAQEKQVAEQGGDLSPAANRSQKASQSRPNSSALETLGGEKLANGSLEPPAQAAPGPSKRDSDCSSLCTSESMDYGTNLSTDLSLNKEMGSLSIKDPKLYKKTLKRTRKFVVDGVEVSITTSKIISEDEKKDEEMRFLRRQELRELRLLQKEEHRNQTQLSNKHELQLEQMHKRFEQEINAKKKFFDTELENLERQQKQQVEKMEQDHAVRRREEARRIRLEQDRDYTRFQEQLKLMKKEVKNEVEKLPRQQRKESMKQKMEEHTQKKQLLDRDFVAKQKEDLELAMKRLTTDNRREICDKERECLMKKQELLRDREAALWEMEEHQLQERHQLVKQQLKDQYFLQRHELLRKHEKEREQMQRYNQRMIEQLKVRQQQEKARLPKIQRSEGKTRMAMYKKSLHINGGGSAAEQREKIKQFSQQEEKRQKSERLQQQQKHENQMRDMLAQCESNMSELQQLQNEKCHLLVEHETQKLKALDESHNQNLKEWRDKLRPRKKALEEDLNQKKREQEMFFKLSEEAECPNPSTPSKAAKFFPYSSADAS
Sequence of Angiopoietin-1 receptor (Homo sapiens) (Q02763 whole entry): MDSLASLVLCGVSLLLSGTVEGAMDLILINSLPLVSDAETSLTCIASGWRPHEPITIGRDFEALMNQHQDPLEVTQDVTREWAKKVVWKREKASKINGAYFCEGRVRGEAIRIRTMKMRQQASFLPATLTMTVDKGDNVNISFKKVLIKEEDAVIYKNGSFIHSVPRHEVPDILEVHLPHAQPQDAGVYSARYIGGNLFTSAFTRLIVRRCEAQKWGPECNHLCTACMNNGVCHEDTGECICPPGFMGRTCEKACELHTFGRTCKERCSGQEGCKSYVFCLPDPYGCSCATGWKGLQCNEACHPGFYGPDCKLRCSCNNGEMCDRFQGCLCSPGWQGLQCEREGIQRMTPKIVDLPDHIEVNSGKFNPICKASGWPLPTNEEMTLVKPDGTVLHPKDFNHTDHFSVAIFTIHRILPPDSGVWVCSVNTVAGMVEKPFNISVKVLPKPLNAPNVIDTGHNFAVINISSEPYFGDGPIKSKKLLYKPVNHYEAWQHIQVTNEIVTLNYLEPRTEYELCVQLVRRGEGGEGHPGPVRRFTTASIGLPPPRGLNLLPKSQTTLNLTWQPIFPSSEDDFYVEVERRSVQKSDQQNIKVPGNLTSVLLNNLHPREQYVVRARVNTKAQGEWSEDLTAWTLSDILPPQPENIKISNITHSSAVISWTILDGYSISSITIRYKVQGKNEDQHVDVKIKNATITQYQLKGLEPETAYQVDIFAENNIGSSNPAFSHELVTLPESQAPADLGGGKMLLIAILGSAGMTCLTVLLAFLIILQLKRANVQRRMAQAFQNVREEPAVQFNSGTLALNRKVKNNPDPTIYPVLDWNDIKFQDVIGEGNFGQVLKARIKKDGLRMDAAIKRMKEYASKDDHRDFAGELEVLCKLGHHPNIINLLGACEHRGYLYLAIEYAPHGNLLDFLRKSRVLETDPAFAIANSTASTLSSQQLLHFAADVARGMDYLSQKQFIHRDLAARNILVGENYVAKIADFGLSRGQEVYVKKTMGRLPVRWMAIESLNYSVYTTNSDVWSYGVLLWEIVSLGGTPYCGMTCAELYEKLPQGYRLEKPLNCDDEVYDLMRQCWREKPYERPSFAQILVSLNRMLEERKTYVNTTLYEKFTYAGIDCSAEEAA
Sequence of Tyrosine-protein kinase Blk (Homo sapiens) (P51451 2-505 limits assumed): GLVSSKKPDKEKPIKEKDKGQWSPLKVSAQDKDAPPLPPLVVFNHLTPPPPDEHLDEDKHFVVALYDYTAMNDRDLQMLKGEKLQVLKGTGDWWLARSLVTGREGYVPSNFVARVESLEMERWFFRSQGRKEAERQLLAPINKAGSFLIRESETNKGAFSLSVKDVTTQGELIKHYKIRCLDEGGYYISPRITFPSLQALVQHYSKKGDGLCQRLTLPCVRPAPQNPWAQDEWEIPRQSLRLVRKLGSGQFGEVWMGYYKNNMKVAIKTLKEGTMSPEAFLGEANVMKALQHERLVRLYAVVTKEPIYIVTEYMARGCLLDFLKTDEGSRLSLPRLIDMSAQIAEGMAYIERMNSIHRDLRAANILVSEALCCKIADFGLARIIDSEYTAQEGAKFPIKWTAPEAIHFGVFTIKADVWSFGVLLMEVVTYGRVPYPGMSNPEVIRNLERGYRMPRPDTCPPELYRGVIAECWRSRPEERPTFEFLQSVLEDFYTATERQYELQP

C[C@@H]1CN(c2cc(-c3n[nH]c4ccc(OC5(C)CC5)cc34)ncn2)C[C@H](C)O1 [MLi-2]
inactive: residual activity [1, 11] 83% | residual activity [2, 11] 83% | residual activity [3, 11] 86% | residual activity [4, 11] 100% | residual activity [5, 11] 88% | residual activity [6, 11] 100% | inhibition [7] 7.85% | inhibition [8] 6.66% | residual activity [9, 11] 90% | residual activity [10, 11] 92%

C[C@@H]1CN(c2cc(-c3nn(C)c4ccc(OC5(C)CC5)cc34)ncn2)C[C@H](C)O1 [MLi-2-NC]
inactive: residual activity [1, 12] 95% | residual activity [2, 12] 91% | residual activity [3, 12] 74% | residual activity [4, 12] 94% | residual activity [5, 12] 62% | residual activity [6, 12] 100% | inhibition [7] 15.1% | inhibition [8] 23.3% | residual activity [9, 12] 95% | residual activity [10, 12] 100%
